We go through 36 molecules from paper PMC6522912, “Evaluation of the published kinase inhibitor set to identify multiple inhibitors of bacterial ATP-dependent mur ligases” (Journal of Enzyme Inhibition and Medicinal Chemistry, 2019).

Read-outs that look alike come from different tables or passages of the source.

The target in one assay is E. coli MurC (Escherichia coli, UniProt P17952). The experiment in a line: Malachite green inhibition assay, MurC. It is filed as biochemical. Conditions: 0.25 h. The protocol:
(§1) Inhibition of the Mur ligases was determined using the malachite green assay, with slight modifications.
(§2) In all cases, the final concentration of DMSO was 5% (v/v). After incubation for 15 min at 37 °C, the enzyme reaction was terminated by addition of 100 µM Biomol green reagent, and the absorbance was measured at 650 nm after 5 min. All of the experiments were run in duplicate. Residual activities were calculated with respect to control assays without the tested compounds, but with the 5% DMSO carrier.
(§3) The published kinase inhibitor set compounds were evaluated for inhibition of MurC, D and F ligases from E. coli using the Malachite green assay, which detects orthophosphate generated during enzymatic reactions. To avoid non-specific inhibition due to aggregate formation, all of the compounds were tested in the presence of detergent (0.005% Triton-X114). The data are presented as the residual activities of these Mur ligases in the presence of 100 µM of each test compound (Supporting Information Table S1). […] Additionally, regarding the data of profiled compounds in large panels of human kinase assays[41]

The target in another assay is E. coli MurD (Escherichia coli, UniProt P14900). The experiment in a line: biochemical. The note with it: for remaining activity at 100 µM: 0.25 h, Table S1, PKIS screening, read-out: RA [%] at 100 µM MurD. Here is the method: as §1, §2
The published kinase inhibitor set compounds were evaluated for inhibition of MurC, D and F ligases from E. coli using the Malachite green assay, which detects orthophosphate generated during enzymatic reactions. To avoid non-specific inhibition due to aggregate formation, all of the compounds were tested in the presence of detergent (0.005% Triton-X114). The data are presented as the residual activities of these Mur ligases in the presence of 100 µM of each test compound (Supporting Information Table S1).

The next assay deals with E. coli MurF (Escherichia coli, UniProt P11880). In words: biochemical. The note with it: 0.25 h, Table S1, PKIS screening; read-out: RA [%] at 100 µM MurF. The protocol: as §1, §2, §3
[1] abbreviates: Table S1, PKIS screening, read-out: RA [%] at 100 µM MurC.
[2] abbreviates: read-out: RA [%] at 100 µM MurC, Table S1, PKIS screening.

Chain of E. coli MurD (P14900 whole entry): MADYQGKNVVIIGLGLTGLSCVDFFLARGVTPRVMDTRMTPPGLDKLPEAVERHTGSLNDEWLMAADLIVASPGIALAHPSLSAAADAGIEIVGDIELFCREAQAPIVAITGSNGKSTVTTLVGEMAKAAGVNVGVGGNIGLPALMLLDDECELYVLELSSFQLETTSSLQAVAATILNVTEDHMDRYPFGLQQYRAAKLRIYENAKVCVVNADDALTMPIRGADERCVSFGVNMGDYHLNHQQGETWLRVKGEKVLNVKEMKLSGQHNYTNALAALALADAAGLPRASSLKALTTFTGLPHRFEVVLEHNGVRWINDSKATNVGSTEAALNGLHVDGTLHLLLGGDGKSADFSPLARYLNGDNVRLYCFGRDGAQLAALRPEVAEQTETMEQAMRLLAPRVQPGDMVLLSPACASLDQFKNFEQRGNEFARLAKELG
Chain of E. coli MurC (P17952 whole entry): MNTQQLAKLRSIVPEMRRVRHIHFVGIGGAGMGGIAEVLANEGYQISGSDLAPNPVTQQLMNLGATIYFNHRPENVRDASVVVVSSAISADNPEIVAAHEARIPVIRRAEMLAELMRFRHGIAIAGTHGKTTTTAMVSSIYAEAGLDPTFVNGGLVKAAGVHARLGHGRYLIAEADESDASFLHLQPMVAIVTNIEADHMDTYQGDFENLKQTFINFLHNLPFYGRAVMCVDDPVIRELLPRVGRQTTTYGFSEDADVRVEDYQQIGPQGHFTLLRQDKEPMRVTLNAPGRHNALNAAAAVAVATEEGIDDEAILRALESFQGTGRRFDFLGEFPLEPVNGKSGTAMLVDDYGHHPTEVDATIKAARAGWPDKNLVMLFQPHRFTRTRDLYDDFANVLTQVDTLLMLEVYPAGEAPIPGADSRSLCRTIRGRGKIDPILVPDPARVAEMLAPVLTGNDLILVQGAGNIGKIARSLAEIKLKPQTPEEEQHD
Chain of E. coli MurF (P11880 whole entry): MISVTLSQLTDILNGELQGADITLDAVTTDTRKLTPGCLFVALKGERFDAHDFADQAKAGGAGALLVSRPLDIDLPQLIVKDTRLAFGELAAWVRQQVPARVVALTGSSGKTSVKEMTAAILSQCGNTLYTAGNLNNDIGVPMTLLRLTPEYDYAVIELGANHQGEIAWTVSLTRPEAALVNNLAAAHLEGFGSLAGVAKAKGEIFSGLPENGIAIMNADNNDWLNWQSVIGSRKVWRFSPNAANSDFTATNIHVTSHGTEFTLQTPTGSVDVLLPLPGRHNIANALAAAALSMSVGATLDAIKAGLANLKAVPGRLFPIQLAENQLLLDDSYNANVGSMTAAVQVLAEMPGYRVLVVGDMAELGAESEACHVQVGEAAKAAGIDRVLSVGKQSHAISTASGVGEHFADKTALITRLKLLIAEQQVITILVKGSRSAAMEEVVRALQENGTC

As to `CC1=C(C(=O)Nc2cc(Cl)c3[nH]ncc3c2)C(c2ccc(C(F)(F)F)cc2)CC(=O)N1` (stereo not shown) [GSK466317A], the remaining activity at 100 µM at E. coli MurC (setting [1]) is 80%; on E. coli MurD it was 99%; on E. coli MurF, 71%.
`CCn1c(-c2nonc2N)nc2c(C#CC(C)(C)O)ncc(OCC3CCNCC3)c21` [GSK554170A]: the remaining activity at 100 µM on E. coli MurC (setting [1]) was found to be 85%; at E. coli MurD it was 89%; on E. coli MurF, 96%.
For `CCn1c(-c2nonc2N)nc2c(C#CCN)ncc(OCCCN)c21` [GSK561866B], in that order: 52%, 82% and 66%.
On the same counts, the results for `C[C@@H](Oc1cc(-n2cnc3ccc(OCC4CCN(C)CC4)cc32)sc1C(N)=O)c1ccccc1Cl` [GSK571989A] are 51%, 53% and 53%.
For `C[C@@H](Oc1cc(-n2cnc3ccc(OC4CCN(C)CC4)cc32)sc1C(N)=O)c1ccccc1Cl` [GSK579289A], the remaining activity at 100 µM at E. coli MurC (setting [1]) turned out to be 67%; at E. coli MurD it was 70%; on E. coli MurF, 66%.
On the same counts, the results for `COc1ccc(-c2ccncc2)cc1C(N)=O` [GSK605714A] are 86%, 91% and 90%.
On the same counts, the results for `CCn1c(-c2nonc2N)nc2c(C#CC(C)(C)O)ncc(OC[C@@H]3CCCN3)c21` [GSK614526A] are 65%, 89% and 100%.
For `CCn1c(-c2nonc2N)nc2c(C#CC(C)(C)O)ncc(OC3CCNCC3)c21` [GSK619487A], in that order: 77%, 86% and 100%.
As for `NC(=O)c1cc(-c2ccc(F)cc2)cc(-c2ccncc2)c1N` [GSK620503A], the values for the remaining activity at 100 µM at E. coli MurC (setting [1]), at E. coli MurD and on E. coli MurF were 94%, 71% and 80%, respectively.
In the case of `NC(=O)c1cc(-c2ccncc2)cc(-c2ccccc2)c1N` [GSK625137A], the remaining activity at 100 µM at E. coli MurC (setting [1]) came out at 65%; at E. coli MurD it was 95%; on E. coli MurF, 84%.
On the same counts, the results for `CNC(=O)c1cc(-c2ccc(F)cc2)cc(-c2ccc(S(=O)(=O)N3CCCC3)cc2)c1N` [GSK635416A] are 71%, 43% and 88%.
For `COc1c(C(N)=O)cc(-c2ccc(Cl)cc2)cc1-c1ccc(S(N)(=O)=O)cc1` [GSK711701A], in that order: 100%, 99% and 93%.
For `CCn1cc(-c2ccnc3[nH]ccc23)c(-c2cccc(NC(=O)Nc3ccc(OCc4ccccc4)cc3)c2)n1` [GSK718429A], the remaining activity at 100 µM on E. coli MurC (setting [1]) was 94%; at E. coli MurD, 83%; at E. coli MurF it was 99%.
On to `CCn1c(-c2nonc2N)nc2c(C#CC(C)(C)O)nc(OC[C@@H](N)c3ccccc3)cc21` [GSK938890A], for which the remaining activity at 100 µM was found to be 76% at E. coli MurC (setting [1]), 80% at E. coli MurD and 92% on E. coli MurF.
On the same counts, the results for `CCn1c(-c2nonc2N)nc2c(C#CC(C)(C)O)nc(OCCNC)cc21` [GSK949675A] are 73%, 85% and 74%.
For `NS(=O)(=O)c1cccc(-c2cc3ccncc3cc2OCc2ccccc2)c1` [GSK980961A], in that order: 80%, 86% and 66%.
For the molecule `NC(=O)c1sc(-n2cnc3ccccc32)cc1OCc1ccccc1Br` [GSK1023156A], the remaining activity at 100 µM on E. coli MurC (setting [1]) was 55%; on E. coli MurD, 82%; at E. coli MurF, 84%.
For `COC(=O)c1sc(-n2cnc3cc(OC)c(OC)cc32)cc1OCc1ccccc1C(F)(F)F` [GSK1030058A], in that order: 32%, 78% and 55%.
On the same counts, the results for `COc1cc2ncn(-c3cc(OCc4ccccc4C(F)(F)F)c(C(=O)N(C)C)s3)c2cc1OC` [GSK1030062A] are 68%, 76% and 63%.
Regarding `COc1cc(N2CCN(C(C)C)CC2)ccc1Nc1nc(Nc2ccc(F)cc2C(N)=O)c2cc[nH]c2n1` [GSK1220512A], the remaining activity at 100 µM on E. coli MurC (setting [2]) was found to be 2%; at E. coli MurD it was 48%; on E. coli MurF it was 54%.
For the molecule `CCCN1CCC(c2ccc(Nc3nc(Nc4cc(F)ccc4C(N)=O)c4cc[nH]c4n3)c(OC)c2)CC1` [GSK1326255A], the remaining activity at 100 µM at E. coli MurC (setting [1]) stood at 0%; at E. coli MurD it was 9%; on E. coli MurF, 4%. Besides, the IC50 at E. coli MurD (printed in the RA cell of Table S1, read-out: IC50 MurD) was found to be 39 µM.
As to `COc1cc(N2CCN(C(C)C)CC2)ccc1Nc1nc(Nc2ccc(F)cc2C(=O)NC[C@@H](O)CO)c2cc[nH]c2n1` [GSK1392956A], the results for the remaining activity at 100 µM at E. coli MurC (setting [1]), on E. coli MurD and at E. coli MurF were 65%, 76% and 90%, respectively.
For `CCCN1CCC(Oc2cc(Nc3nc(Nc4cccc(F)c4C(N)=O)c4cc[nH]c4n3)c(OC)cc2Cl)CC1` [GSK1713088A], in that order: 59%, 54% and 85%.
On the same counts, the results for `COc1cc2c(cc1Nc1nc(Nc3cccc(F)c3C(N)=O)c3cc[nH]c3n1)N(C(=O)CN1CCN(C(C)C)CC1)CC2` [GSK1751853A] are 55%, 74% and 89%.
On the same counts, the results for `COc1cc(N2CCN(C(C)C)CC2)ccc1Nc1nc(Nc2cccc(F)c2C(=O)O)c2cc[nH]c2n1` [GSK1819799A] are 0%, 37% and 39%.
Consider `COc1cc2c(cc1Nc1nc(N3CCc4ccccc43)c3cc[nH]c3n1)N(C(=O)CN(C)C)CC2` [GSK2186269A], for which the remaining activity at 100 µM at E. coli MurC (setting [1]) came to 23%; at E. coli MurD, 100%; at E. coli MurF, 26%.
In the case of `COc1cc(C)c(N(C)C(=O)CN(C)C)cc1Nc1nc(Nc2cccc(F)c2C(N)=O)c2cc[nH]c2n1` [GSK2219385A], the remaining activity at 100 µM on E. coli MurC (setting [2]) was 73%; on E. coli MurD it was 93%; on E. coli MurF, 93%.
As for `CNC(=O)c1ncccc1Nc1nc(Nc2cc3c(cc2OC)CCCN3C(=O)CN(C)C)nc2[nH]ccc12` [GSK2220400A], the remaining activity at 100 µM turned out to be 69% at E. coli MurC (setting [2]), 84% at E. coli MurD and 81% on E. coli MurF.
As for `NS(=O)(=O)c1cccc(N/C=C2\C(=O)Nc3ccccc32)c1` [GW275616X], the remaining activity at 100 µM amounted to 84% on E. coli MurC (setting [1]), 88% at E. coli MurD and 83% at E. coli MurF.
With `Cc1ccc2c(c1)C(=NNc1ccc(S(N)(=O)=O)cc1)C(=O)N2` [GW275944X], the remaining activity at 100 µM was determined as 92% at E. coli MurC (setting [1]), 87% on E. coli MurD and 83% at E. coli MurF.
On the same counts, the results for `NS(=O)(=O)c1ccc(N/N=C2\C(=O)Nc3ccc(-c4cnco4)cc32)cc1` [GW276655X] are 84%, 73% and 22%.
For `CS(=O)(=O)Nc1ccc(N/C=C2\C(=O)Nc3ccccc32)cc1` [GW278681X], the figures for the remaining activity at 100 µM at E. coli MurC (setting [1]), on E. coli MurD and at E. coli MurF were 71%, 89% and 77%, respectively.
On the same counts, the results for `Cc1cc(Cl)cc2c1NC(=O)C2=NNc1ccc(S(N)(=O)=O)cc1` [GW279320X] are 76%, 78% and 0%.
Take `NS(=O)(=O)c1ccc(N/N=C2\C(=O)Nc3ccc(Cl)cc32)cc1` [GW280670X]: the remaining activity at 100 µM on E. coli MurC (setting [1]) worked out at 100%; at E. coli MurD, 99%; on E. coli MurF, 76%.
On the same counts, the results for `COc1cc2ncnc(Nc3ccc4c(cnn4Cc4ccccc4)c3)c2cc1OC` [GW282449A] are 53%, 62% and 56%.
Consider `CN(C)c1cc2c(Nc3ccc4c(cnn4Cc4ccccc4)c3)ncnc2cn1` [GW282974X], for which the remaining activity at 100 µM at E. coli MurC (setting [1]) came to 77%; at E. coli MurD, 70%; at E. coli MurF it was 55%.
